Patent publication US20250333397A1 (REMIX THERAPEUTICS INC., priority 2021, published 2025)
Where two headings read alike, the source gives them in different places.

Columns and labels:
Format in all cases: cell-based, human
HTT mRNA = assay: RT-qPCR splicing assay, HTT canonical (CJ) and alternative (AJ) junction mRNA; conditions: Homo sapiens; for AC50: read-out: HTT AJ (AC50, increase in AJ mRNA)
In short: (§1)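 Cells: A673 (DMEM/10% FBS, plated 24 h before) or K562 (IMDM/10% FBS). Dosing: 11-pt 3-fold series, 10 uM top final, ≤0.25% DMSO, 24 h, 37 °C/5% CO2. Readout: RT-qPCR of CJ and AJ junctions, housekeeper-normalized, RQ = 2^(-ΔΔCt) vs DMSO.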

MYB mRNA = assay: RT-qPCR splicing assay, MYB canonical (CJ) and alternative (AJ) junction mRNA; conditions: Homo sapiens; for AC50: read-out: MYB AJ (AC50, increase in AJ mRNA)
In short: as §1

SMN2 mRNA = assay: RT-qPCR splicing assay panel, SMN2 canonical junction (CJ) mRNA; conditions: Homo sapiens, canonical junction (CJ) mRNA, RT-qPCR panel, Table 4A; read-out: SMN2, decrease in CJ mRNA levels, IC50
In short: as §1

Target C mRNA = assay: RT-qPCR splicing assay panel, Target C canonical junction (CJ) mRNA; conditions: Homo sapiens, canonical junction (CJ) mRNA, RT-qPCR panel, Table 4A; read-out: Target C, decrease in CJ mRNA levels, IC50
In short: as §1

[1] = 24 h, Table 3A, A673 or K562 cells, 24 h treatment
[2] = 24 h, Table 3A, A673 or K562 cells, 24 h treatment, read-out: HTT CJ (IC50, decrease in CJ mRNA)
[3] = canonical junction (CJ) mRNA, RT-qPCR panel, Table 4A, read-out: HTT, decrease in CJ mRNA levels, IC50
[4] = 24 h, Table 3A, A673 or K562 cells, 24 h treatment, read-out: MYB CJ (IC50, decrease in CJ mRNA)
[5] = canonical junction (CJ) mRNA, RT-qPCR panel, Table 4A, read-out: MYB, decrease in CJ mRNA levels, IC50

Compound	IC50 (HTT mRNA; [2]) [nM]	IC50 (HTT mRNA; [3]) [nM]	IC50 (MYB mRNA; [4]) [nM]	IC50 (MYB mRNA; [5]) [nM]	IC50 (SMN2 mRNA) [nM]	IC50 (Target C mRNA) [nM]	AC50 (HTT mRNA; [1]) [nM]	AC50 (MYB mRNA; [1]) [nM]
COc1cc(-c2cc(O)c(-c3ccc(N4CC[C@@H](NC(C)(C)C)C4)nn3)cc2F)cnn1 [Compound 212, 2-{6-[(3R)-3-(tert-butylamino)pyrrolidin-1-yl]pyridazin-3-yl}-4-fluoro-5-(6-methoxypyridazin-4-yl)phenol]	< 100	< 100	< 100	< 100	< 100	< 100	< 100	< 100
COc1cc(-c2cc(O)c(-c3ccc(N4CC[C@@H](NC5CC5)C4)nn3)cc2F)cnn1 [Compound 213, 2-{6-[(3R)-3-(cyclopropylamino)pyrrolidin-1-yl]pyridazin-3-yl}-4-fluoro-5-(6-methoxypyridazin-4-yl)phenol]	100 to 1000	100 to 1000	100 to 1000	100 to 1000	< 100	1000 to 10000	100 to 1000	1000 to 10000
COc1cc(-c2cc(O)c(-c3ccc(N4CC[C@H](NC5CC5)C4)nn3)cc2F)cnn1 [Compound 214, 2-{6-[(3S)-3-(cyclopropylamino)pyrrolidin-1-yl]pyridazin-3-yl}-4-fluoro-5-(6-methoxypyridazin-4-yl)phenol]	< 100	< 100	100 to 1000	100 to 1000	< 100	100 to 1000	< 100	100 to 1000
COc1cc(-c2ccc(-c3ccc(N4CC[C@H](NC5CC5)C4)nn3)c(O)c2)cnn1 [Compound 215, 2-{6-[(3S)-3-(cyclopropylamino)pyrrolidin-1-yl]pyridazin-3-yl}-5-(6-methoxypyridazin-4-yl)phenol]	< 100	< 100	100 to 1000	100 to 1000	< 100	100 to 1000	< 100	100 to 1000
COc1cc(-c2ccc(-c3ccc(N4CC[C@@H](NC5CC5)C4)nn3)c(O)c2)cnn1 [Compound 216, 2-{6-[(3R)-3-(cyclopropylamino)pyrrolidin-1-yl]pyridazin-3-yl}-5-(6-methoxypyridazin-4-yl)phenol]	< 100	< 100	100 to 1000	100 to 1000	< 100	100 to 1000	100 to 1000	100 to 1000
COc1cc(-c2ccc(-c3ccc(N4C[C@@H](F)[C@@H](NC(C)(C)C)C4)nn3)c(O)c2)cnn1 [Compound 218, 2-{6-[(3S,4R)-3-(tert-butylamino)-4-fluoropyrrolidin-1-yl]pyridazin-3-yl}-5-(6-methoxypyridazin-4-yl)phenol]	< 100	< 100	< 100	< 100	< 100	< 100	< 100	< 100
COc1cc(-c2ccc(-c3ccc(N4CCC(NC(C)(C)C)C4=O)nn3)c(O)c2)cnn1 (stereo not shown) [Compound 219, 3-(tert-butylamino)-1-{6-[2-hydroxy-4-(6-methoxypyridazin-4-yl)phenyl]pyridazin-3-yl}pyrrolidin-2-one]	1000 to 10000	1000 to 10000	1000 to 10000	1000 to 10000	1000 to 10000	1000 to 10000	1000 to 10000	1000 to 10000
O=c1cc(-c2cc(O)c(-c3ccc(N4CC[C@@H](NC5CCC5)C4)nn3)cc2F)cc[nH]1 [Compound 220, 4-(4-{6-[(3R)-3-(cyclobutylamino)pyrrolidin-1-yl]pyridazin-3-yl}-2-fluoro-5-hydroxyphenyl)-1H-pyridin-2-one]	100 to 1000	100 to 1000	100 to 1000	100 to 1000	100 to 1000	100 to 1000	100 to 1000	100 to 1000
O=c1cc(-c2cc(O)c(-c3ccc(N4CC[C@H](NC5CCC5)C4)nn3)cc2F)cc[nH]1 [Compound 221]	100 to 1000	100 to 1000	100 to 1000	100 to 1000	< 100	1000 to 10000	100 to 1000	1000 to 10000

Now from value to compound, other results behind:

IC50 (HTT mRNA; [2]) [nM]	IC50 (HTT mRNA; [3]) [nM]	IC50 (MYB mRNA; [4]) [nM]	IC50 (MYB mRNA; [5]) [nM]	IC50 (SMN2 mRNA) [nM]	IC50 (Target C mRNA) [nM]	Compound	AC50 (HTT mRNA; [1]) [nM]	AC50 (MYB mRNA; [1]) [nM]
100 to 1000	100 to 1000	100 to 1000	100 to 1000	100 to 1000	1000 to 10000	Cc1ccc(-c2cc(O)c(-c3ccc(N4CC[C@@H](NC5CCC5)C4)nn3)cc2F)cn1 [Compound 222]	100 to 1000	1000 to 10000
100 to 1000	100 to 1000	100 to 1000	100 to 1000	100 to 1000	1000 to 10000	Cc1ccc(-c2cc(O)c(-c3ccc(N4CC[C@H](NC5CCC5)C4)nn3)cc2F)cn1 [Compound 223, 2-{6-[(3S)-3-(cyclobutylamino)pyrrolidin-1-yl]pyridazin-3-yl}-4-fluoro-5-(6-methylpyridin-3-yl)phenol]	100 to 1000	100 to 1000
1000 to 10000	1000 to 10000	> 10000	> 10000	1000 to 10000	> 10000	COc1cncc(-c2cc(O)c(-c3ccc(N4CC[C@H](NC5CCC5)C4)nn3)cc2F)c1 [Compound 224, 2-{6-[(3S)-3-(cyclobutylamino)pyrrolidin-1-yl]pyridazin-3-yl}-4-fluoro-5-(5-methoxypyridin-3-yl)phenol]	> 10000	> 10000
> 10000	> 10000	> 10000	> 10000	> 10000	> 10000	COc1cncc(-c2cc(O)c(-c3ccc(N4CC[C@@H](NC5CCC5)C4)nn3)cc2F)c1 [Compound 225, 2-{6-[(3R)-3-(cyclobutylamino)pyrrolidin-1-yl]pyridazin-3-yl}-4-fluoro-5-(5-methoxypyridin-3-yl)phenol]	> 10000	> 10000
< 100	< 100	100 to 1000	100 to 1000	< 100	100 to 1000	Cc1cn(-c2cc(O)c(-c3ccc(N4CC[C@@H](NC5CCC5)C4)nn3)cc2F)cn1 [Compound 226, 2-{6-[(3R)-3-(cyclobutylamino)pyrrolidin-1-yl]pyridazin-3-yl}-4-fluoro-5-(4-methylimidazol-1-yl)phenol]	100 to 1000	100 to 1000
< 100	< 100	100 to 1000	100 to 1000	< 100	100 to 1000	Cc1cn(-c2cc(O)c(-c3ccc(N4CC[C@H](NC5CCC5)C4)nn3)cc2F)cn1 [Compound 227, 2-{6-[(3S)-3-(cyclobutylamino)pyrrolidin-1-yl]pyridazin-3-yl}-4-fluoro-5-(4-methylimidazol-1-yl)phenol]	< 100	100 to 1000
100 to 1000	100 to 1000	100 to 1000	100 to 1000	< 100	100 to 1000	Cc1ncc(-c2cc(O)c(-c3ccc(N4CC[C@@H](NC5CCC5)C4)nn3)cc2F)o1 [Compound 228, 2-{6-[(3R)-3-(cyclobutylamino)pyrrolidin-1-yl]pyridazin-3-yl}-4-fluoro-5-(2-methyl-1,3-oxazol-5-yl)phenol]	100 to 1000	100 to 1000
< 100	< 100	100 to 1000	100 to 1000	< 100	100 to 1000	Cc1ncc(-c2cc(O)c(-c3ccc(N4CC[C@H](NC5CCC5)C4)nn3)cc2F)o1 [Compound 229, 2-{6-[(3S)-3-(cyclobutylamino)pyrrolidin-1-yl]pyridazin-3-yl}-4-fluoro-5-(2-methyl-1,3-oxazol-5-yl) phenol]	< 100	100 to 1000
100 to 1000	100 to 1000	1000 to 10000	1000 to 10000	< 100	1000 to 10000	COc1cc(-c2cc(O)c(-c3ccc(N4CC[C@@H](NC5CCC5)C4)nn3)cc2F)cnn1 [Compound 230, 2-{6-[(3R)-3-(cyclobutylamino)pyrrolidin-1-yl]pyridazin-3-yl}-4-fluoro-5-(6-methoxypyridazin-4-yl)phenol]	100 to 1000	1000 to 10000
< 100	< 100	100 to 1000	100 to 1000	< 100	100 to 1000	COc1cc(-c2cc(O)c(-c3ccc(N4CC[C@H](NC5CCC5)C4)nn3)cc2F)cnn1 [Compound 231, 2-{6-[(3S)-3-(cyclobutylamino)pyrrolidin-1-yl]pyridazin-3-yl}-4-fluoro-5-(6-methoxypyridazin-4-yl)phenol]	< 100	100 to 1000
< 100	< 100	100 to 1000	100 to 1000	< 100	100 to 1000	COc1cc(-c2cc(O)c(-c3ccc(N4CC[C@@H](N[C@H]5C[C@H](F)C5)C4)nn3)cc2F)cnn1 [Compound 232]	100 to 1000	100 to 1000
